Laboratory results from patent publication US20230203041A1, “ANTAGONISTS OF THE ADENOSINE A2A RECEPTOR” (AdoRx Therapeutics Limited, priority 2020, published 2023).

What was measured:
[1] = biological target: T1, human Adenosine A2a receptor (Homo sapiens, UniProt P29274); assay: Adenosine receptor TR-FRET binding assay (CA200645 displacement), A2a; conditions: 100 nM CA200645, CHO cell membranes, 2 hours at room temperature
T1 construct: expressed in transfected cells; host or cells: CHO cell membranes

[2] = biological target: T2, human Adenosine A1 receptor (Homo sapiens, UniProt P30542); assay: Adenosine receptor TR-FRET binding assay (CA200645 displacement), A1
T2 sequence (P30542 1-326): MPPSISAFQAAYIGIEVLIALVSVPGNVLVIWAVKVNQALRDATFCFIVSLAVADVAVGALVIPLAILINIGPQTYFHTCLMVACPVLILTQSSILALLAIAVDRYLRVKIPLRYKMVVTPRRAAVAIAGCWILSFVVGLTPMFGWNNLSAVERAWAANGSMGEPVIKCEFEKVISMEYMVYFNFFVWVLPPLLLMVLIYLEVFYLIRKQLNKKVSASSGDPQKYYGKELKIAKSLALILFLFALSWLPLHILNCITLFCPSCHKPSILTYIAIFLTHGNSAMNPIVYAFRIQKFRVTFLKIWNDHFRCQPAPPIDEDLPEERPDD
Description: All FRET binding experiments were conducted at room temperature in white 384-well plates, in assay binding buffer containing 1×LabMed (Cisbio, France), 100 μg/mL saponin, 1% DMSO and 0.02% pluronic acid. Binding of the fluorescently labelled Adenosine receptor antagonist XAC (CA200645, FRET acceptor) to terbium-labelled A1, A2a, A2b and A3 adenosine receptors (FRET donors) was detected by time-resolved FRET due to the close proximity of the donor and acceptor in a binding event. To investigate the ability of unlabelled test compounds to bind to Adenosine A1, A2a, A2b and A3 receptors, dose response curves were constructed that determined the ability of a range of concentrations to inhibit the binding of 30 nM CA200645 to the A2b receptor and 100 nM CA200645 to the A1, A2a, and A3 receptor.
Serial dilution (1:3 dilutions) of test compounds in neat DMSO and transfer of a 400 nL sample of test compound into the assay plate was carried out using the Mosquito (TTP Labtech, UK). The compound samples were incubated for 2 hours at room temperature with a fixed concentration of CA200645 defined for each receptor (see above) and CHO cell membranes containing the human Adenosine A1 (0.5 μg/well), A2a (0.3 μg/well), A2b (1 μg/well) or A3 (1 μg/well) receptor in 40 μL of assay buffer. Total and non-specific binding of CA200645 was determined in the absence and presence of 10 μM XAC, respectively. Following 2 hours incubation, the level of CA200645 binding was detected on a Pherastar FSX (BMG Labtech, Germany) using standard TR-FRET settings. The terbium donor was excited with three laser flashes at a wavelength of 337 nm, and donor and acceptor emission was detected at 620 nm and 665 nm wavelengths, respectively. FRET ratios were obtained by multiplying the acceptor/donor ratio value by 10,000. Specific binding was determined by subtracting the non-specific binding FRET ratio from the total binding FRET ratio. Compound IC50 curves were analysed using GraphPad Prism 7.0 (GraphPad, USA) and Ki affinity values were determined from the obtained IC50 values using the method of Cheng and Prusoff.

[3] = biological target: T3, human Adenosine A2b receptor (Homo sapiens, UniProt P29275); assay: Adenosine receptor TR-FRET binding assay (CA200645 displacement), A2b; conditions: 30 nM CA200645, CHO cell membranes, 2 hours at room temperature
T3 construct: expressed in transfected cells; host or cells: CHO cell membranes
T3 sequence (P29275 1-332): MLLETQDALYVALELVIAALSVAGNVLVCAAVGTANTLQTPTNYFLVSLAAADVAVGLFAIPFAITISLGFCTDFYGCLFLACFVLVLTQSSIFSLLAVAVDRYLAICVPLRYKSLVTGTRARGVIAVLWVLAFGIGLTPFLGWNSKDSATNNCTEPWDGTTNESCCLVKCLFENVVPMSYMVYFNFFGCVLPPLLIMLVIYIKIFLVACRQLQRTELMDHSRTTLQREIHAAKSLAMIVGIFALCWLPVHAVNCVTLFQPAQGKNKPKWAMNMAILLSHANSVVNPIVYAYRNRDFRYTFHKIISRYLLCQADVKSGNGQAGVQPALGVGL

[4] = biological target: T4, human Adenosine A3 receptor (Homo sapiens, UniProt P0DMS8); assay: Adenosine receptor TR-FRET binding assay (CA200645 displacement), A3
T4 sequence (P0DMS8 1-318): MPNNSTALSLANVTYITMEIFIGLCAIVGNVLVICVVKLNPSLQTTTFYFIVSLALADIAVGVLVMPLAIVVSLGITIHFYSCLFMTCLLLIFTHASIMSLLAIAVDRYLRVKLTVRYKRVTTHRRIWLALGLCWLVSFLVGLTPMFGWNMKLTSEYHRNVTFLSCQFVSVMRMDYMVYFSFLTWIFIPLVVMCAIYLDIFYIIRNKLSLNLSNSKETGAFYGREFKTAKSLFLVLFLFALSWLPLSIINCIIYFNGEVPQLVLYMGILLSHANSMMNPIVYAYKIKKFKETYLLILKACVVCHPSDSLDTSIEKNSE

T1 sequence (P29274 whole entry): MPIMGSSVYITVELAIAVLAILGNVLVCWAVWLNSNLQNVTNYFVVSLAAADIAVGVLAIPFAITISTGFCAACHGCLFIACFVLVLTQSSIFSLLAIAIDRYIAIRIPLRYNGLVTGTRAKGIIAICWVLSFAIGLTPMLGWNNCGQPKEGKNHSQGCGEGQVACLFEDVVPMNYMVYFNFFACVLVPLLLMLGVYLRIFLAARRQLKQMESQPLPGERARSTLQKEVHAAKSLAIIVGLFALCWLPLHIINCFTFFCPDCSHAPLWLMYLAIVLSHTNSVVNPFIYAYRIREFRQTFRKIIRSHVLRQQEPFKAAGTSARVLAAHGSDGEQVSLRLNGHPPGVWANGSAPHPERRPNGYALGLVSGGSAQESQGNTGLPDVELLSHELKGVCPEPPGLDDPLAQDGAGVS

SMILES: Cc1cc(-c2c(-c3cccc(C#N)c3)nn3ccc(C(=O)NC4(C#N)CCNCC4)nc23)cc(Cl)n1 (single isomer, unassigned) [Example 7.16, 3-(2-Chloro-6-methyl-4-pyridyl)-2-(3-cyanophenyl)-N-(4-cyano-4-piperidyl)pyrazolo[1,5-a]pyrimidine-5-carboxamide]
- Ki [1]: 17.7 nM
- Ki [2]: 418 nM
- Ki [3]: 54 nM
- Ki [4]: > 1000 nM

SMILES: Cc1cc(-c2c(-c3cccc(C#N)c3)nn3ccc(C(=O)NC4(C(N)=O)CCNCC4)nc23)cc(Cl)n1 (single isomer, unassigned) [Example 7.17, N-(4-Carbamoyl-4-piperidyl)-3-(2-chloro-6-methyl-4-pyridyl)-2-(3-cyanophenyl)pyrazolo[1,5-a]pyrimidine-5-carboxamide]
- Ki [1]: 16.4 nM
- Ki [2]: 279 nM
- Ki [3]: 68 nM
- Ki [4]: > 1000 nM

SMILES: N#Cc1cccc(-c2nn3ccc(N)nc3c2-c2cn[nH]c2)c1 [Example 1.1]
- Ki [1]: 147 nM
- Ki [2]: 95 nM
- Ki [3]: 239 nM

SMILES: N#Cc1cccc(-c2nn3ccc(N)nc3c2-c2ccnnc2)c1 [Example 1.2]
- Ki [1]: 13.9 nM
- Ki [2]: 20 nM
- Ki [3]: 29 nM
- Ki [4]: 646 nM

SMILES: CCn1nccc1-c1c(-c2cccc(C#N)c2)nn2ccc(N)nc12 [Example 1.3]
- Ki [1]: 74.8 nM
- Ki [2]: 197 nM
- Ki [3]: 16 nM
- Ki [4]: > 1000 nM

SMILES: Cc1cc(-c2c(-c3cccc(C#N)c3)nn3ccc(N4CCOCC4)nc23)cc(Cl)n1 [Example 2.33]
- Ki [1]: 22.5 nM
- Ki [3]: 212 nM
- Ki [4]: 2000 nM

SMILES: Cc1cc(-c2c(-c3cccc(C#N)c3)nn3ccc(NC(C)(C)C)nc23)cc(Cl)n1 [Example 3.2]
- Ki [1]: 12 nM
- Ki [3]: 113 nM
- Ki [4]: > 1000 nM

SMILES: Cc1cc(-c2c(-c3cccc(C#N)c3)nn3ccc(C(=O)N[C@H]4CCCNC4)nc23)cc(Cl)n1 [Example 7.4, 3-(2-Chloro-6-methyl-4-pyridyl)-2-(3-cyanophenyl)-N-[(3S)-3-piperidyl]pyrazolo[1,5-a]pyrimidine-5-carboxamide]
- Ki [1]: 4.1 nM
- Ki [3]: 119 nM
- Ki [4]: > 1000 nM

SMILES: Cc1cc(-c2c(-c3cccc(C#N)c3)nn3ccc(C(=O)N[C@@H]4CCCNC4)nc23)cc(Cl)n1 [Example 7.7, 3-(2-Chloro-6-methyl-4-pyridyl)-2-(3-cyanophenyl)-N-[(3R)-3-piperidyl]pyrazolo[1,5-a]pyrimidine-5-carboxamide]
- Ki [1]: 14.9 nM
- Ki [3]: 12 nM
- Ki [4]: > 1000 nM

SMILES: Cc1cc(-c2c(-c3cccc(C#N)c3)nn3ccc(C(=O)O)nc23)cc(Cl)n1 [Example 9, 3-(2-Chloro-6-methyl-4-pyridyl)-2-(3-cyanophenyl)pyrazolo[1,5-a]pyrimidine-5-carboxylic acid]
- Ki [1]: 94 nM
- Ki [3]: 426 nM
- Ki [4]: > 1000 nM

SMILES: CCn1nccc1-c1c(-c2cccc(C#N)c2)nn2ccc(C(=O)NCC(C)(C)O)nc12 [Example 12, 2-(3-Cyanophenyl)-3-(2-ethylpyrazol-3-yl)-N-(2-hydroxy-2-methyl-propyl)pyrazolo[1,5-a]pyrimidine-5-carboxamide]
- Ki [1]: 145 nM
- Ki [3]: 240 nM
- Ki [4]: > 1000 nM

SMILES: CCn1ncc(C)c1-c1c(-c2cccc(C#N)c2)nn2ccc(C(=O)NCC(C)(C)O)nc12 [Example 12.3, 2-(3-Cyanophenyl)-3-(2-ethyl-4-methyl-pyrazol-3-yl)-N-(2-hydroxy-2-methyl-propyl)pyrazolo[1,5-a]pyrimidine-5-carboxamide]
- Ki [3]: 2310 nM
- Ki [4]: > 1000 nM

SMILES: Cn1nccc1-c1c(-c2cccc(C#N)c2)nn2ccc(C(=O)NCC(C)(C)O)nc12 [Example 12.5, 2-(3-Cyanophenyl)-N-(2-hydroxy-2-methyl-propyl)-3-(2-methylpyrazol-3-yl)pyrazolo[1,5-a]pyrimidine-5-carboxamide]
- Ki [2]: 2380 nM
- Ki [3]: 1510 nM

SMILES: CC(C)(O)CNC(=O)c1ccn2nc(-c3cccc(C#N)c3)c(-c3cncs3)c2n1 [Example 12.7, 2-(3-Cyanophenyl)-N-(2-hydroxy-2-methyl-propyl)-3-thiazol-5-yl-pyrazolo[1,5-a]pyrimidine-5-carboxamide]
- Ki [1]: 27.4 nM
- Ki [2]: 725 nM
- Ki [3]: 792 nM

SMILES: Cc1cc(-c2c(-c3cccc(C#N)c3)nn3ccc(NCCO)nc23)cc(Cl)n1 [Example 19, 3-[3-(2-Chloro-6-methyl-4-pyridyl)-5-(2-hydroxyethylamino)pyrazolo[1,5-a]pyrimidin-2-yl]benzonitrile]
- Ki [1]: 0.3 nM
- Ki [2]: 16 nM
- Ki [3]: 4 nM

SMILES: Cc1cc(-c2c(-c3cccc(C#N)c3)nn3ccc(N[C@@H](C)CO)nc23)cc(Cl)n1 [Example 23.3]
- Ki [1]: 10.1 nM
- Ki [3]: 29 nM
- Ki [4]: > 1000 nM

SMILES: Cc1cc(-c2c(-c3cccc(C#N)c3)nn3ccc(O[C@H]4CCNC4)nc23)cc(Cl)n1 [Example 24.2, 3-[3-(2-Chloro-6-methyl-4-pyridyl)-5-[(3S)-pyrrolidin-3-yl]oxy-pyrazolo[1,5-a]pyrimidin-2-yl]benzonitrile]
- Ki [1]: 12.5 nM
- Ki [3]: 25 nM
- Ki [4]: > 1000 nM

SMILES: Cc1cc(-c2c(-c3cccc(C#N)c3)nn3ccc(O[C@H]4CCCNC4)nc23)cc(Cl)n1 [Example 24.3, 3-[3-(2-Chloro-6-methyl-4-pyridyl)-5-[[(3S)-3-piperidyl]oxy]pyrazolo[1,5-a]pyrimidin-2-yl]benzonitrile]
- Ki [1]: 50.8 nM
- Ki [3]: 91 nM
- Ki [4]: > 1000 nM

SMILES: Cc1cc(-c2c(-c3cccc(C#N)c3)nn3ccc(N)nc23)cc(C#N)n1 [Example 26.3, 4-[5-Amino-2-(3-cyanophenyl)pyrazolo[1,5-a]pyrimidin-3-yl]-6-methyl-pyridine-2-carbonitrile]
- Ki [1]: 7.2 nM
- Ki [2]: 44 nM
- Ki [3]: 12 nM

SMILES: Fc1ccccc1-c1cc2nc(NCc3ccccc3)ccn2n1 [Example 36, N-Benzyl-2-(2-fluorophenyl)pyrazolo[1,5-a]pyrimidin-5-amine]
- Ki [1]: 175 nM
- Ki [3]: 1780 nM
- Ki [4]: > 1000 nM

SMILES: N#Cc1c(-c2ccco2)nn2ccc(N3CCN(c4ccccc4)CC3)nc12 [Example 55, 2-(2-Furyl)-5-(4-phenylpiperazin-1-yl)pyrazolo[1,5-a]pyrimidine-3-carbonitrile]
- Ki [1]: 43.1 nM
- Ki [3]: 2370 nM
- Ki [4]: > 1000 nM

SMILES: Cc1cccnc1CNc1ccn2nc(-c3cccc(F)c3)cc2n1 [Example 66.1, 2-(3-Fluorophenyl)-N-[(3-methyl-2-pyridyl)methyl]pyrazolo[1,5-a]pyrimidin-5-amine]
- Ki [1]: 72 nM
- Ki [3]: 1200 nM
- Ki [4]: > 1000 nM

SMILES: Fc1cccc(-c2cc3nc(NCCc4ccccc4)ccn3n2)c1 [Example 66.2, 2-(3-Fluorophenyl)-N-(2-phenylethyl)pyrazolo[1,5-a]pyrimidin-5-amine]
- Ki [1]: 284 nM
- Ki [3]: 2160 nM
- Ki [4]: 25 nM

SMILES: Fc1cccc(-c2cc3nc(NCc4nc5ccccc5[nH]4)ccn3n2)c1 [Example 66.3, N-(1H-Benzimidazol-2-ylmethyl)-2-(3-fluorophenyl)pyrazolo[1,5-a]pyrimidin-5-amine]
- Ki [1]: 492 nM
- Ki [2]: 102 nM
- Ki [3]: 2430 nM

SMILES: Fc1cccc(-c2nn3ccc(NCc4ccccc4)nc3c2Cl)c1 [Example 67, N-Benzyl-3-chloro-2-(3-fluorophenyl)pyrazolo[1,5-a]pyrimidin-5-amine]
- Ki [1]: 120 nM
- Ki [3]: 7470 nM
- Ki [4]: > 1000 nM

SMILES: Fc1cccc(-c2nn3ccc(NCc4ccccc4)nc3c2Br)c1 [Example 69, N-Benzyl-3-bromo-2-(3-fluorophenyl)pyrazolo[1,5-a]pyrimidin-5-amine]
- Ki [1]: 141 nM
- Ki [3]: 10000 nM
- Ki [4]: > 1000 nM

SMILES: Nc1ccn2nc(-c3cccc(F)c3)c(Br)c2n1 [Example 71, 3-Bromo-2-(3-fluorophenyl)pyrazolo[1,5-a]pyrimidin-5-amine]
- Ki [1]: 197 nM
- Ki [3]: 3860 nM
- Ki [4]: > 1000 nM

SMILES: O=C(O)c1c(-c2ccco2)nn2ccc(NCc3ccccc3)nc12 [Example 76, 5-(Benzylamino)-2-(2-furyl)pyrazolo[1,5-a]pyrimidine-3-carboxylic acid]
- Ki [1]: 116 nM
- Ki [2]: 2540 nM
- Ki [3]: 2430 nM

SMILES: Cc1cc(-c2c(-c3cccc(C#N)c3)nn3ccc(NS(N)(=O)=O)nc23)cc(Cl)n1 [Example 93, 3-(2-chloro-6-methyl-4-pyridyl)-2-(3-cyanophenyl)-5-(sulfamoylamino)pyrazolo[1,5-a]pyrimidine]
- Ki [1]: 11.1 nM
- Ki [2]: 307 nM
- Ki [3]: 1 nM
